Measurements from patent US20150258059A1, “ANTIMICROBIAL AND RADIOPROTECTIVE COMPOUNDS” (BioDiem, Ltd, priority 2001, published 2015).
Where two headings read alike, the source gives them in different places.

How the values were obtained:
Format in all cases: cell-based
[1] = system: Pseudomonas aeruginosa B-601; assay: Sensitivity of strains: suppression of growth; details: Compound (1) 1.0%; antibiotics disc method
Escherichia coli M-17 = assay: Sensitivity of strains: suppression of growth; details: Compound (1) 1.0%; antibiotics disc method
Escherichia coli B-683 = assay: Sensitivity of strains: suppression of growth; details: Compound (1) 1.0%; antibiotics disc method
Escherichia coli B-65 = assay: Sensitivity of strains: suppression of growth; details: Compound (1) 1.0%; antibiotics disc method
[2] = system: Enterobacter aerogenes B-679; assay: Sensitivity of strains: suppression of growth; details: Compound (1) 1.0%; antibiotics disc method
[3] = system: Enterobacter aerogenes B-687; assay: Sensitivity of strains: suppression of growth; details: Compound (1) 1.0%; antibiotics disc method
Acinetobacter B-681 = assay: Sensitivity of strains: suppression of growth; details: Compound (1) 1.0%; antibiotics disc method
Acinetobacter B-676 = assay: Sensitivity of strains: suppression of growth; details: Compound (1) 1.0%; antibiotics disc method
Acinetobacter B-677 = assay: Sensitivity of strains: suppression of growth; details: Compound (1) 1.0%; antibiotics disc method
Alkaligenes sp. B-689 = assay: Sensitivity of strains: suppression of growth; details: Compound (1) 1.0%; antibiotics disc method
Alkaligenes sp. B-667 = assay: Sensitivity of strains: suppression of growth; details: Compound (1) 1.0%; antibiotics disc method
[4] = system: Yersinia pseudotuberculosis; details: Compound (1) 1.0%; antibiotics disc method
[5] = system: Klebsiella pneumoniae M-A21; assay: Sensitivity of strains: suppression of growth; details: Compound (1) 1.0%; antibiotics disc method
[6] = system: Klebsiella pneumoniae M-248; assay: Sensitivity of strains: suppression of growth; details: Compound (1) 1.0%; antibiotics disc method
[7] = system: Corynebacterium diphtheriae B-670; assay: Sensitivity of strains: suppression of growth; details: Compound (1) 1.0%; antibiotics disc method
Bacillus sp. B-575 = assay: Sensitivity of strains: suppression of growth; note: key: + sensitive strains; + moderately sensitive strains; − stable strains
[8] = system: Neisseria meningitidis M-6231; assay: Sensitivity of strains: suppression of growth; details: Compound (1) 1.0%; antibiotics disc method
[9] = system: Neisseria meningitidis M-A72; assay: Sensitivity of strains: suppression of growth; details: Compound (1) 1.0%; antibiotics disc method
[10] = system: Staphylococcus aureus M-12159; assay: Sensitivity of strains: suppression of growth; details: Compound (1) 1.0%; antibiotics disc method
[11] = system: Staphylococcus aureus M-209; assay: Sensitivity of strains: suppression of growth; details: Compound (1) 1.0%; antibiotics disc method
[12] = system: Staphylococcus aureus B-685; assay: Sensitivity of strains: suppression of growth; details: Compound (1) 1.0%; antibiotics disc method
[13] = system: Staphylococcus aureus B-674; assay: Sensitivity of strains: suppression of growth; details: Compound (1) 1.0%; antibiotics disc method
[14] = system: Staphylococci epidermidis D-513; assay: Sensitivity of strains: suppression of growth; details: Compound (1) 1.0%; antibiotics disc method
[15] = system: Staphylococcus epidermidis BK-30; assay: Sensitivity of strains: suppression of growth; details: Compound (1) 1.0%; antibiotics disc method
[16] = system: γ-hemolytic streptococcus B-672; assay: Sensitivity of strains: suppression of growth; details: Compound (1) 1.0%; antibiotics disc method
[17] = system: β-hemolytic streptococcus B-624; assay: Sensitivity of strains: suppression of growth; details: Compound (1) 1.0%; antibiotics disc method
[18] = system: Conditional pathogenic enterobacteria gram-negative aerobic bacilli; note: key: + sensitive strains; + moderately sensitive strains; − stable strains
[19] = system: Salmonella paratyphi M-16469; assay: Sensitivity of strains: suppression of growth; details: Compound (1) 1.0%; antibiotics disc method
[20] = system: Citrobacter diversus B-678; assay: Sensitivity of strains: suppression of growth; details: Compound (1) 1.0%; antibiotics disc method
[21] = system: Salmonella typhimurium M-727; assay: Sensitivity of strains: suppression of growth; details: Compound (1) 1.0%; antibiotics disc method
[22] = system: Shigella flexneri M-2A6907; assay: Sensitivity of strains: suppression of growth; details: Compound (1) 1.0%; antibiotics disc method
Shigella sonnei B-720 = assay: Sensitivity of strains: suppression of growth; details: Compound (1) 1.0%; antibiotics disc method

Row | Compound | Suppression of Growth (+/−) [1] | Suppression of Growth (+/−) (Escherichia coli M-17) | Suppression of Growth (+/−) (Escherichia coli B-683) | Suppression of Growth (+/−) (Escherichia coli B-65) | Suppression of Growth (+/−) [2] | Suppression of Growth (+/−) [3] | Suppression of Growth (+/−) (Acinetobacter B-681) | Suppression of Growth (+/−) (Acinetobacter B-676) | Suppression of Growth (+/−) (Alkaligenes sp. B-689) | Suppression of Growth (+/−) (Alkaligenes sp. B-667) | Suppression of Growth (+/−) [4] | Suppression of Growth (+/−) [5] | Suppression of Growth (+/−) [6] | Suppression of Growth (+/−) [8] | Suppression of Growth (+/−) [9] | Suppression of Growth (+/−) [10] | Suppression of Growth (+/−) [11] | Suppression of Growth (+/−) [12] | Suppression of Growth (+/−) [13] | Suppression of Growth (+/−) [14] | also measured
1 | CN(C)[C@@H]1C(=O)C(C(N)=O)=C(O)[C@@]2(O)C(=O)C3=C(O)c4c(O)cccc4[C@@](C)(O)[C@H]3C[C@@H]12 [Antibiotic 13, tetracycline] | + | + | + | + | − | − | − | − | − | − | − | − | − | − | − | − | − | − | + | − | Suppression of Growth (+/−) (Acinetobacter B-677): −; Suppression of Growth (+/−) [7]: +; Suppression of Growth (+/−) (Bacillus sp. B-575): +; Suppression of Growth (+/−) [15]: −; Suppression of Growth (+/−) [16]: −; Suppression of Growth (+/−) [17]: −
2 | polymixin [Antibiotic 9] | + | + | + | + | + | + | − | − | − | + | − | − | − | − | − | − | + | − | − | − | Suppression of Growth (+/−) [18]: −; Suppression of Growth (+/−) [19]: −; Suppression of Growth (+/−) (Acinetobacter B-677): −; Suppression of Growth (+/−) [7]: −; Suppression of Growth (+/−) (Bacillus sp. B-575): −; Suppression of Growth (+/−) [15]: −; Suppression of Growth (+/−) [16]: −; Suppression of Growth (+/−) [17]: −
3 | CC1(C)S[C@@H]2[C@H](NC(=O)[C@H](N)c3ccccc3)C(=O)N2[C@H]1C(=O)O [Antibiotic 2, ampicillin] | + | + | + | + | − | − | − | − | − | − | − | − | − | − | − | − | − | − | − | + | Suppression of Growth (+/−) [18]: −; Suppression of Growth (+/−) [20]: +; Suppression of Growth (+/−) [21]: −; Suppression of Growth (+/−) (Acinetobacter B-677): −; Suppression of Growth (+/−) (Bacillus sp. B-575): −; Suppression of Growth (+/−) [15]: +; Suppression of Growth (+/−) [16]: +; Suppression of Growth (+/−) [17]: +
4 | O=C(N[C@H](CO)[C@H](O)c1ccc([N+](=O)[O-])cc1)C(Cl)Cl [Antibiotic 7, levomicethin] | + | + | + | + | − | − | − | − | + | − | − | − | − | − | − | − | − | − | + | − | Suppression of Growth (+/−) [18]: −; Suppression of Growth (+/−) [20]: −; Suppression of Growth (+/−) [22]: +; Suppression of Growth (+/−) [21]: −; Suppression of Growth (+/−) (Acinetobacter B-677): −; Suppression of Growth (+/−) (Bacillus sp. B-575): +; Suppression of Growth (+/−) [15]: −; Suppression of Growth (+/−) [16]: −; Suppression of Growth (+/−) [17]: −
5 | CC1(C)S[C@@H]2[C@H](NC(=O)C(C(=O)O)c3ccccc3)C(=O)N2[C@H]1C(=O)O (stereo partly drawn) [Antibiotic 4, carbenicillin] | + | + | + | + | − | − | − | − | − | − | − | − | − | − | − | + | + | + | − | + | Suppression of Growth (+/−) [18]: −; Suppression of Growth (+/−) [20]: −; Suppression of Growth (+/−) (Acinetobacter B-677): −; Suppression of Growth (+/−) [7]: −; Suppression of Growth (+/−) (Bacillus sp. B-575; Compound (1) 1.0%, antibiotics disc method): −; Suppression of Growth (+/−) [15]: +; Suppression of Growth (+/−) [16]: −; Suppression of Growth (+/−) [17]: +
6 | NC[C@H]1O[C@H](O[C@H]2[C@H](O)[C@@H](O[C@H]3O[C@H](CO)[C@@H](O)[C@H](N)[C@H]3O)[C@H](N)C[C@@H]2N)[C@H](O)[C@@H](O)[C@@H]1O [Antibiotic 5, kanamycin] | + | + | + | + | − | − | − | − | + | − | − | − | − | − | − | + | + | + | − | − | Suppression of Growth (+/−) [18]: −; Suppression of Growth (+/−) [20]: +; Suppression of Growth (+/−) (Acinetobacter B-677): −; Suppression of Growth (+/−) [7]: −; Suppression of Growth (+/−) [15]: −; Suppression of Growth (+/−) [16]: −; Suppression of Growth (+/−) [17]: −
7 | ristomycin [Antibiotic 11] | − | − | − | + | − | − | − | − | − | − | − | − | − | − | − | + | + | + | − | + | Suppression of Growth (+/−) [20]: −; Suppression of Growth (+/−) [22]: −; Suppression of Growth (+/−) (Shigella sonnei B-720): −; Suppression of Growth (+/−) [21]: −; Suppression of Growth (+/−) [19]: −; Suppression of Growth (+/−) [7]: +; Suppression of Growth (+/−) [15]: +; Suppression of Growth (+/−) [16]: +; Suppression of Growth (+/−) [17]: +
